# Target: ROCK2 (human) (UniProt O75116)
# Experiment: Inhibition of ROCK2 Kinase Activity
# ROCK2 (human), sequence (O75116 whole entry, looked up): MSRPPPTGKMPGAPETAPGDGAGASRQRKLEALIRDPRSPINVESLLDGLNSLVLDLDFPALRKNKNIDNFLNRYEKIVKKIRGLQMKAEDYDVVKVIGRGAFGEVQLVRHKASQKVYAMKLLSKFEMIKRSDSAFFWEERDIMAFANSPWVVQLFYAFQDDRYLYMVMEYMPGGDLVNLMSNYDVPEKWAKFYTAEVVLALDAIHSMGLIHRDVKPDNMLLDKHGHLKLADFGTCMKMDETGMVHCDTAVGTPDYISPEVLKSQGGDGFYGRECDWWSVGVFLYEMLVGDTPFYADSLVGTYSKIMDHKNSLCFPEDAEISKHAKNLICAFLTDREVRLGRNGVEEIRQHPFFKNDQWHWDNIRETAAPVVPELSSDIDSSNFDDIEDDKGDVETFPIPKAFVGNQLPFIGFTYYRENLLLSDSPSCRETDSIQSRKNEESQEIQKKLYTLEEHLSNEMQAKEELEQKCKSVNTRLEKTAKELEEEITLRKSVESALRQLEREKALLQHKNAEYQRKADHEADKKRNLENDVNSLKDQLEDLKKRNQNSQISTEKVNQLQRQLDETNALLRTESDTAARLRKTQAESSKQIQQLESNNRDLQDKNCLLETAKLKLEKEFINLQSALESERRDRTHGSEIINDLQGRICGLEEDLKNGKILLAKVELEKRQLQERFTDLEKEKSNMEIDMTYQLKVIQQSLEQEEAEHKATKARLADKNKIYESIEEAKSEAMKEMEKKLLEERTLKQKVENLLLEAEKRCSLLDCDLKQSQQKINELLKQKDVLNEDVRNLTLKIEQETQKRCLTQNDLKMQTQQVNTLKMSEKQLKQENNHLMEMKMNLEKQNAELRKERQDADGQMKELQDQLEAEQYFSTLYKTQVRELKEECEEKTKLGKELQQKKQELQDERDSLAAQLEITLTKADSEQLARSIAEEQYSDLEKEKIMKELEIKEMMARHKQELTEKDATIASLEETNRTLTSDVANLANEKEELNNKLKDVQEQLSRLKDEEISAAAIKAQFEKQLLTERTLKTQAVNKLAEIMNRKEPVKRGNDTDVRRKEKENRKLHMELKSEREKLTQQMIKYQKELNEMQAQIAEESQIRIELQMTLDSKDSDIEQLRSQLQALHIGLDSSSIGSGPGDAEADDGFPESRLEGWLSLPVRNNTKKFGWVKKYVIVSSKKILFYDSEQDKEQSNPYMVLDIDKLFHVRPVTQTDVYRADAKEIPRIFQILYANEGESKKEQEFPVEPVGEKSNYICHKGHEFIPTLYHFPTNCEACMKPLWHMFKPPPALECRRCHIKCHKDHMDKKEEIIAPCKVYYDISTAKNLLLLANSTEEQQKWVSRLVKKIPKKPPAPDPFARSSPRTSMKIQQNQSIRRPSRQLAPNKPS
row,IC50,SMILES
1,40 nM,CN(C)S(=O)(=O)c1ccc2c(c1)CC(c1nc3ccc(-c4ccnc(N)n4)cc3[nH]1)CO2 (stereo unspecified)
2,< 1 nM,Nc1nccc(-c2ccc3nc(C4COc5ccc(C(=O)NCc6ccccc6)cc5C4)[nH]c3c2)n1 (stereo unspecified)
3,4 nM,NC(=O)c1ccc2c(c1)CC(c1nc3ccc(-c4ccnc(N)n4)cc3[nH]1)CO2 (stereo unspecified)
4,10 nM,Nc1nccc(-c2ccc3nc(C4COc5ccc(Br)cc5C4)[nH]c3c2)n1 (stereo unspecified)
5,1.2 nM,Nc1nccc(-c2ccc3nc(C4COc5ccc(C(=O)NC6CC6)cc5C4)[nH]c3c2)n1 (stereo unspecified)
6,316 nM,CCCOc1ccc2c(c1)CC(c1nc3ccc(-c4ccnc(N)n4)cc3[nH]1)CO2 (stereo unspecified)
7,1.2 nM,Nc1nccc(-c2ccc3nc(C4COc5ccc(C(=O)NCCN6CCOCC6)cc5C4)[nH]c3c2)n1 (stereo unspecified)
8,4.7 nM,Nc1nccc(-c2ccc3nc(C4COc5ccc(F)cc5C4)[nH]c3c2)n1 (stereo unspecified)
9,2.7 nM,CC(=O)c1ccc2c(c1)CC(c1nc3ccc(-c4ccnc(N)n4)cc3[nH]1)CO2 (stereo unspecified)
10,43 nM,N#Cc1ccc2c(c1)CC(c1nc3ccc(-c4ccnc(N)n4)cc3[nH]1)CO2 (stereo unspecified)
11,0.8 nM,Nc1nccc(-c2ccc3nc(C4COc5ccc(CC(=O)NC6CC6)cc5C4)[nH]c3c2)n1 (stereo unspecified)

# Reference: the Kinase Knowledgebase extract (Sharma et al. 2016)
